Paper PMC8998978, “Toward a Treatment of Cancer: Design and In Vitro/In Vivo Evaluation of Uncharged Pyrazoline Derivatives as a Series of Novel SHP2 Inhibitors” (International Journal of Molecular Sciences, 2022)

Legend:
95-D cells = test: Cell viability assay (SRB); assay type: cell-based; conditions: Homo sapiens, 72 h
Text: (§1) Human colon cancer cell line HCT116, hepatoma cell lines HepG2 and BEL-7402, lung adenocarcinoma cell lines NCI-H1975 and 95-D, pancreatic cancer cell line Panc-1, breast cancer cell line MDA-MB-231, NSCLC cell line NCI-H1299, ovarian cancer cell line SK-OV-3, leukemia cell line K562, glioma cell line U87, colon epithelial cell line NCM460 and umbilical vein endothelial cell line HUVEC were purchased from the Institute of Biochemistry and Cell Biology, Chinese Academy of Sciences (Shanghai, China). HCT116 cell line was cultured in McCoy’s 5A medium (Hyclone, Logan, UT, USA). HepG2, 95-D, Panc-1, MDA-MB-231, BEL-7402, SK-OV-3, U87 and NCM460 cell lines were cultured in DMEM-High glucose medium (Hyclone, Logan, UT, USA). NCI-H1975, NCI-H1299 and HUVEC cell lines were cultured in RPMI 1640 medium (Hyclone, Logan, UT, USA). K562 cell line was cultured in IMDM medium (Hyclone, Logan, UT, USA). All of them were incubated in the medium with 10% fetal bovine serum (PAN, Adenbach, Bavaria, Germany) and 1% penicillin-streptomycin (Gibco-Invitrogen, Grand Island, NY, USA) under a humidified atmosphere of 5% CO2 at 37 °C.
(§2) The inhibition rate of cell viability was detected by 3-(4,5-dimethyl-2-thiazolyl)-2,5-diphenyl-2-H-tetrazolium bromide (MTT, Solarbio, Beijing, China) or Sulforhodamine B (SRB, Sigma-Aldrich, St. Louis, MO, USA) assay. In MTT assay, the suspension cells were inoculated in 96-well plates at the density of 5000 cells per well, and incubated with 4o at indicated concentrations dissolved in DMSO for 72 h. Each well was incubated with MTT solution (5 mg/mL) at 37 °C for 4 h, DMSO was added and incubated overnight at 37 °C. The absorbance at 570 nm was measured in a multimode reader (Berthold Technologies, Germany). In SRB assay, adherent cells were seeded in 96-well plates (5000 cells per well). After 24 h, the cells were treated with 4o for 72 h, and then fixed with precooling 10% TCA solution at 4 °C for 1 h. After washing and drying, SRB staining was added for 15 min, and then washed and dried by 1% acetic acid. Finally, Tris–HCl solution was added, and the absorbance at 515 nm was detected in a multimode reader (Berthold Technologies, Germany).

BEL-7402 cells = test: Cell viability assay (SRB); assay type: cell-based; conditions: Homo sapiens, BEL-7402, 72 h
Text: as §1, §2

NCI-H1299 cells = test: Cell viability assay (SRB); assay type: cell-based; conditions: Homo sapiens, NCI-H1299, 72 h
Text: as §1, §2

Panc-1 cells = test: Cell viability assay (SRB); assay type: cell-based; conditions: Homo sapiens, Panc-1, 72 h
Text: as §1, §2

SK-OV-3 cells = test: Cell viability assay (SRB); assay type: cell-based; conditions: Homo sapiens, SK-OV-3, 72 h
Text: as §1, §2

HUVEC cells = test: Cell viability assay (SRB), normal cells; assay type: cell-based; conditions: Homo sapiens, 72 h
Text: as §1, with “All of them were incubated in the medium with 10% fetal bovine serum (PAN, Adenbach, Bavaria, Germany) and 1% penicillin-streptomycin (Gibco-Invitrogen, Grand Island, NY, USA) under a humidified atmosphere of 5% CO2 at 37 °C.” left out
(§3) The inhibition rate of cell viability was detected by 3-(4,5-dimethyl-2-thiazolyl)-2,5-diphenyl-2-H-tetrazolium bromide (MTT, Solarbio, Beijing, China) or Sulforhodamine B (SRB, Sigma-Aldrich, St. Louis, MO, USA) assay. […] The absorbance at 570 nm was measured in a multimode reader (Berthold Technologies, Germany). […] Finally, Tris–HCl solution was added, and the absorbance at 515 nm was detected in a multimode reader (Berthold Technologies, Germany).

NCM460 cells = test: Cell viability assay (SRB), normal cells; assay type: cell-based; conditions: Homo sapiens, 72 h
Text: as §1, with “All of them were incubated in the medium with 10% fetal bovine serum (PAN, Adenbach, Bavaria, Germany) and 1% penicillin-streptomycin (Gibco-Invitrogen, Grand Island, NY, USA) under a humidified atmosphere of 5% CO2 at 37 °C.” left out
as §3

HCT116 cells = test: Hoechst 33258 staining; assay type: cell-based, human; conditions: HCT116, 4o 2.5, 5 and 10 μM, 24 h
Description: HCT116 cells were treated with different concentrations of 4o for 24 h, then were stained with Hoechst 33,258 (Beyotime Institute of Biotechnology, Shanghai, China). The nuclear morphology was observed under fluorescence microscope.

[1] = tested on: RAS/MAPK signaling pathway in HCT116 cells; test: RAS activation assay and p-Erk Western blotting; assay type: cell-based, human; conditions: HCT116, 4o 2.5, 5 and 10 μM, 12 h, dose-dependent, versus DMSO
Description: HCT116 cells were harvested, lysed on ice in RIPA buffer (Beyotime Institute of Biotechnology, Shanghai, China) and boiled. Protein concentration was measured by BCA protein assay kit (Beyotime Institute of Biotechnology, Shanghai, China). The protein samples were separated by SDS-PAGE and transferred to the membrane (Pall, New York, NY, USA). Afterwards, the membrane was immunoblotted with the corresponding primary antibody (C-parp (#5625), C-cas9 (#9505), C-cas3 (#9661), Bcl-2 (#4223), Bax (#5023), SHP2 (#3752), P-Erk1/2 (#9101) and Erk1/2 (#9102), 1:1000, Cell Signaling Technology, Danvers, MA, USA; Tubulin (#ET1602-4), 1:5000, HUABIO, Hangzhou, China) and the appropriate HRP-conjugated secondary antibody, and determined with ECL detection reagent (Thermo Scientific, Waltham, MA, USA).
Active RAS (RAS-GTP) was pulled down from HCT116 cells. Cells were seeded in 6-well plates and treated with different concentrations of 4o for 12 h after overnight serum starvation. Cells were stimulated with 100 ng/mL hEGF for 5 min before cell lysis. On the basis of protein extraction and quantification, RAS activation assay biochem kit (Cytoskeleton Inc., Denver, CO, USA) was used for detection according to the requirements of manufacturers.

Question: With `CCOc1ccc(Oc2ccc(C3=NN(C4=NC(=O)CS4)C(c4cc(O)c(O)c(Br)c4Br)C3)cc2)cc1` (stereo not drawn) [Compound 4o, 2-(5-(2,3-dibromo-4,5-dihydroxyphenyl)-3-(4-(4-ethoxyphenoxy)phenyl)-4,5-dihydro-1H-pyrazol-1-yl)thiazol-4(5H)-one] as the compound, how does the IC50 (95-D cells) read?
Answer: 5.42 ± 0.44 µM

Question: And the IC50 (BEL-7402 cells)?
Answer: 7.38 ± 0.31 µM

Question: What about the IC50 (NCI-H1299 cells) of the same compound?
Answer: 7.42 ± 0.43 µM

Question: And the IC50 (Panc-1 cells)?
Answer: 6.3 ± 0.5 µM

Question: And the IC50 (SK-OV-3 cells)?
Answer: 8.44 ± 0.45 µM

Question: What about the IC50 (HUVEC cells) of the same compound?
Answer: 28.3 ± 1.63 µM

Question: What about the IC50 (NCM460 cells) of the same compound?
Answer: 27.1 ± 0.66 µM

Question: What about the “Nuclear morphology (Hoechst 33,258 staining)” value (HCT116 cells) of the same compound?
Answer: chromatin was condensed and apoptosis occurred

Question: What about the “Levels of RAS-GTP and p-Erk” value [1] of the same compound?
Answer: decreased
